Literature values, collected in patent US7128928B2, “Ophthalmic formulation with novel gum composition” (Pharmacia Corporation, priority 2002, dated 2006).

System: infective gram-positive bacteria

CC(=O)NC[C@H]1CN(c2ccc(N3CCOCC3)c(F)c2)C(=O)O1 [linezolid]
MIC90: about 4 μg/ml
